Measurements published in paper PMC3407089, “Influence of GABAA Receptor α Subunit Isoforms on the Benzodiazepine Binding Site” (PLoS ONE, 2012).
Where two headings read alike, the source gives them in different places.

Experiments:
[1] = biological target: T1, α1S205Cβ2γ2 GABAA receptor (Rattus norvegicus, UniProt P18508+P62813, S232C); experiment: Covalent reaction of 3-NCS at the binding level (residual radioligand binding, HEK293 membranes); details: 3-NCS 30 min on ice, washed; residual [^3H]Ro15–1788 binding
T1 sequence (P62813 28-455 S232C): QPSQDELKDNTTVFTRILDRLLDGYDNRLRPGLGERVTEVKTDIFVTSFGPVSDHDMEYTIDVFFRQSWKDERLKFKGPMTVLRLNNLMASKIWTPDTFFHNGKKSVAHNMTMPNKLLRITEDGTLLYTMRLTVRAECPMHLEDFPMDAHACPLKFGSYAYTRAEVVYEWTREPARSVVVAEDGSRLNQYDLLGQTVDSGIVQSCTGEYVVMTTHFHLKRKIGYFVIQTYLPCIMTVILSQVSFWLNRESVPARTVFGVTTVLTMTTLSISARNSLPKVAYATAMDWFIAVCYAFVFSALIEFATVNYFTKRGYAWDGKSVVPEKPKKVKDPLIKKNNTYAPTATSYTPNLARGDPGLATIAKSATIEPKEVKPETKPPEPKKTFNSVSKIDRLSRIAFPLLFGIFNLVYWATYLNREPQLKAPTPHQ
T1 sequence (P18508 39-466): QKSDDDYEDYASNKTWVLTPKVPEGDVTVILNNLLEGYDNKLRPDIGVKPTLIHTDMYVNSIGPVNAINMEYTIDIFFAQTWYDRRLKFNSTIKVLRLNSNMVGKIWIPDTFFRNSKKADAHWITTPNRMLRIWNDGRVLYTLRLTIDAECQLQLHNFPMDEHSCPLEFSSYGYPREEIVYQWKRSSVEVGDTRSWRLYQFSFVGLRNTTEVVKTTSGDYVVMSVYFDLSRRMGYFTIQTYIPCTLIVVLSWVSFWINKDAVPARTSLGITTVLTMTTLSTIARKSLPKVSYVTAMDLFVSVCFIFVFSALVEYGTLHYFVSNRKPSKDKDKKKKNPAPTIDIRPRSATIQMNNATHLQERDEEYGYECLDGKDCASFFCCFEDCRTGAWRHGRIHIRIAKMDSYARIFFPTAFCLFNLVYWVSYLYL
T1 sequence (P63138 26-474 partner): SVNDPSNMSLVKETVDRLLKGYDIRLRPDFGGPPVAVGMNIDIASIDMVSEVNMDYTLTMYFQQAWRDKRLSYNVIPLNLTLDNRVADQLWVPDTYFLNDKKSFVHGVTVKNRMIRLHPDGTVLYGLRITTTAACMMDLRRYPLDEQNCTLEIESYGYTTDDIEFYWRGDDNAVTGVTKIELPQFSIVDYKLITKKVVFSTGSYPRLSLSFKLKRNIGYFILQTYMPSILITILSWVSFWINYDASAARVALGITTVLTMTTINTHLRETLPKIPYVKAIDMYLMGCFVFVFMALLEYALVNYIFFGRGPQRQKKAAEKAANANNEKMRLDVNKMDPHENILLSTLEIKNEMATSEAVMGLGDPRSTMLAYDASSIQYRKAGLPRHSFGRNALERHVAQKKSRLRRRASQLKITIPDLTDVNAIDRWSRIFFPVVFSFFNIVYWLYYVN
Protocol: (§1) cDNAs coding for the αx (x = 1, 2, 3, 6), β2, and γ2S subunits DNA (20 µg : 20 µg : 20 µg) per 9 cm diameter dish were transfected in human embryonic kidney (HEK) 293 cells (American Type of Culture Collection, MD, USA, CRL 1573) using the calcium phosphate precipitation technique. For α5 containing receptors β2 was replaced by β1. […] Culturing of cells and membrane preparation were done as described before.
(§2) As detailed in previous work, [30], [33] this procedure included three steps: incubation of membranes expressing recombinant wild type or mutant receptors with the reactive agent followed by extensive washing of the membranes in order to remove non-reacted compound and a radioactive ligand binding assay to determine residual binding. No covalent reaction would result in 100% residual binding, and 100% covalent reaction would result in 0% residual binding.
(§3) Briefly, the membranes were re-suspended in phosphate buffer (100 mM KCl, 10 mM KH2PO4, 0.1 mM EDTA, pH 7.4) using a Glass/Teflon homogenizer. 0.1–1.0 mg/mL of protein were incubated in a total volume of 360 µL with either 10 µM (determination of degree of covalent reaction) or several concentrations of 3-NCS for 30 min on ice. Membranes were collected with rapid filtration on a round 7 mm diameter glass fiber filter (GF/C; Whatman) that was placed on a round 24 mm diameter glass fiber filter (GF/C; Whatman), both pre-washed with phosphate buffer. The reaction of 3-NCS with the receptor was stopped by washing of the filters six times with 5 mL phosphate buffer, each. The small filters with the deposited membranes were incubated in 0.12 mL phosphate buffer containing 5 nM [^3H]Ro15–1788. After 30 min the 7 mm filter was placed on a 24 mm filter and washed six times with 5 mL phosphate buffer each. Radioactivity was determined by liquid scintillation counting. Non-specific binding was determined in the presence of 100 µM Ro 15–1788. In control experiments, washing efficiency was estimated by placing radioactivity on the small filter. More than 99.95% of the radioactivity was removed (not shown).
(§4) Concentration response curves for 3-NCS were fitted with the equation C(c) = Cmax/(1+(EC50/c)), where c is the concentration of 3-NCS, EC50 the concentration of 3-NCS where half maximal covalent reaction was observed, Cmax is the maximal extent of the covalent reaction and C the measured extent of the covalent reaction.

[2] = biological target: T2, α1T206Cβ2γ2 GABAA receptor (Rattus norvegicus, UniProt P18508+P62813, T233C); experiment: as above; details: 3-NCS 30 min on ice, washed; residual [^3H]Ro15–1788 binding
T2 sequence (P62813 28-455 T233C): as the sequence (P62813 28-455 S232C) above, with C205S, T206C counted along it
T2 sequence (P18508 39-466): as the sequence (P18508 39-466) above
T2 sequence (P63138 26-474 partner): as the sequence (P63138 26-474 partner) above
Protocol: as §1, §2, §3, §4

[3] = biological target: α2S204Cβ2γ2 GABAA receptor (Rattus norvegicus, UniProt P18508+P23576, S232C); experiment: as above
α2S204Cβ2γ2 GABAA receptor, sequence (P23576 29-451 S232C): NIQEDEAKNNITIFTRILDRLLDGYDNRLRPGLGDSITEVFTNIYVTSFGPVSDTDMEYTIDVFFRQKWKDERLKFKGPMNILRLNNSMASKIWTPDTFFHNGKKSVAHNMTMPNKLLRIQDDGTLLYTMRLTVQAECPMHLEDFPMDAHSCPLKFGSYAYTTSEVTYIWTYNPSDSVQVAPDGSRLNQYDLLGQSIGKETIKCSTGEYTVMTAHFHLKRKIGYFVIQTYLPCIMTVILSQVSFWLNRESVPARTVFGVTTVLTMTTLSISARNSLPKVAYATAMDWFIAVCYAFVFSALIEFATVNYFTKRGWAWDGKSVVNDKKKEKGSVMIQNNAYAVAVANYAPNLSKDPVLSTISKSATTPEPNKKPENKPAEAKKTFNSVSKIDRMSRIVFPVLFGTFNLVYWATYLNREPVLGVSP
α2S204Cβ2γ2 GABAA receptor, sequence (P18508 39-466): as the sequence (P18508 39-466) above
α2S204Cβ2γ2 GABAA receptor, sequence (P63138 26-474 partner): as the sequence (P63138 26-474 partner) above
Protocol: as §1, §2, §3, §4

[4] = biological target: α2S205Cβ2γ2 GABAA receptor (Rattus norvegicus, UniProt P18508+P23576, S233C); experiment: as above
α2S205Cβ2γ2 GABAA receptor, sequence (P23576 29-451 S233C): as the sequence (P23576 29-451 S232C) above, with C204S, S205C counted along it
α2S205Cβ2γ2 GABAA receptor, sequence (P18508 39-466, stated change not applied): as the sequence (P18508 39-466) above
α2S205Cβ2γ2 GABAA receptor, sequence (P63138 26-474 partner): as the sequence (P63138 26-474 partner) above
Protocol: as §1, §2, §3, §4

[5] = biological target: α2T206Cβ2γ2 GABAA receptor (Rattus norvegicus, UniProt P18508+P23576, T234C); experiment: as above
α2T206Cβ2γ2 GABAA receptor, sequence (P23576 29-451 T234C): as the sequence (P23576 29-451 S232C) above, with C204S, T206C counted along it
α2T206Cβ2γ2 GABAA receptor, sequence (P18508 39-466): as the sequence (P18508 39-466) above
α2T206Cβ2γ2 GABAA receptor, sequence (P63138 26-474 partner): as the sequence (P63138 26-474 partner) above
Protocol: as §1, §2, §3, §4

[6] = biological target: α5S209Cβ1γ2 GABAA receptor (Rattus norvegicus, UniProt P18508+P19969, S240C); experiment: as above
α5S209Cβ1γ2 GABAA receptor, sequence (P19969 26-464 S240C): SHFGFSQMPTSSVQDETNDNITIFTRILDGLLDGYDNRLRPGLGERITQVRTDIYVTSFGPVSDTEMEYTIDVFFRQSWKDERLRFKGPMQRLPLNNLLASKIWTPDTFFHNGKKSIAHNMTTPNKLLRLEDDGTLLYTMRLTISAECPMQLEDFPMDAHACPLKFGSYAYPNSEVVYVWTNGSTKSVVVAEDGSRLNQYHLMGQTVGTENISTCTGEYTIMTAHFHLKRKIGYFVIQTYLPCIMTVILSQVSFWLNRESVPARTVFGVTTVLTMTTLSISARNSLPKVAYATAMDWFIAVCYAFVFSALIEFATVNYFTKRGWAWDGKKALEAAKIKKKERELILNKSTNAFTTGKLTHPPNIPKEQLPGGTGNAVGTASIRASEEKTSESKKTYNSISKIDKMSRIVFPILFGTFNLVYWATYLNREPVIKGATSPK
α5S209Cβ1γ2 GABAA receptor, sequence (P18508 39-466, stated change not applied): as the sequence (P18508 39-466) above
α5S209Cβ1γ2 GABAA receptor, sequence (P15431 26-474 partner): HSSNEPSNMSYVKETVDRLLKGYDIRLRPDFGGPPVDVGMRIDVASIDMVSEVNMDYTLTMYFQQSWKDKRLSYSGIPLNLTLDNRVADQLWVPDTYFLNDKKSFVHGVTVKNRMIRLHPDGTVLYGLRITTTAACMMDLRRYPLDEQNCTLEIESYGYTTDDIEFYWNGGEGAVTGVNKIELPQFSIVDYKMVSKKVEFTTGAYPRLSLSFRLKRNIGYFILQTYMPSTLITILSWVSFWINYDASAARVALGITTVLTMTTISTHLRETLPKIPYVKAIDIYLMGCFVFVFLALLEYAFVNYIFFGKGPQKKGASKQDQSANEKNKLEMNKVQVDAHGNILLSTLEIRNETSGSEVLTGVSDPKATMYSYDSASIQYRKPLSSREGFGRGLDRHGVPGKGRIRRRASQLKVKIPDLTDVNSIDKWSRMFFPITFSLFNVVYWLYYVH
Protocol: as §1, §2, §3, §4

[7] = biological target: α5T210Cβ1γ2 GABAA receptor (Rattus norvegicus, UniProt P18508+P19969, T241C); experiment: as above
α5T210Cβ1γ2 GABAA receptor, sequence (P19969 26-464 T241C): as the sequence (P19969 26-464 S240C) above, with C215S, T216C counted along it
α5T210Cβ1γ2 GABAA receptor, sequence (P18508 39-466): as the sequence (P18508 39-466) above
α5T210Cβ1γ2 GABAA receptor, sequence (P15431 26-474 partner): as the sequence (P15431 26-474 partner) above
Protocol: as §1, §2, §3, §4

[8] = biological target: α1S204Cβ2γ2 GABAA receptor; experiment: as above; parameters: key: n.r.: no covalent reaction; details: 3-NCS 30 min on ice, washed; residual [^3H]Ro15–1788 binding
Protocol: as §1, §2
as §3, with “The reaction of 3-NCS with the receptor was stopped by washing of the filters six times with 5 mL phosphate buffer, each. The small filters with the deposited membranes were incubated in 0.12 mL phosphate buffer containing 5 nM [^3H]Ro15–1788. After 30 min the 7 mm filter was placed on a 24 mm filter and washed six times with 5 mL phosphate buffer each.” left out
as §4

[9] = biological target: α6N204Cβ2γ2 GABAA receptor; experiment: as above; parameters: key: n.r.: no covalent reaction; details: 3-NCS 30 min on ice, washed; [^3H]15–4513 as radioactive ligand
Protocol: as §1, §2
as §3, with “The reaction of 3-NCS with the receptor was stopped by washing of the filters six times with 5 mL phosphate buffer, each. The small filters with the deposited membranes were incubated in 0.12 mL phosphate buffer containing 5 nM [^3H]Ro15–1788. After 30 min the 7 mm filter was placed on a 24 mm filter and washed six times with 5 mL phosphate buffer each.” left out
as §4

[10] = biological target: α6S203Cβ2γ2 GABAA receptor; experiment: as above; parameters: key: n.r.: no covalent reaction; details: 3-NCS 30 min on ice, washed; [^3H]15–4513 as radioactive ligand
Protocol: as §1, §2
as §3, with “The reaction of 3-NCS with the receptor was stopped by washing of the filters six times with 5 mL phosphate buffer, each. The small filters with the deposited membranes were incubated in 0.12 mL phosphate buffer containing 5 nM [^3H]Ro15–1788. After 30 min the 7 mm filter was placed on a 24 mm filter and washed six times with 5 mL phosphate buffer each.” left out
as §4

α2β2γ2 receptors = biological target: T3, α2β2γ2 receptors (Rattus norvegicus, UniProt P18508+P23576); experiment: Radioactive ligand binding / displacement of [^3H]Ro 15–1788
T3 construct: expressed in transfected cells; host or cells: HEK293 cells (ATCC CRL 1573), membranes
T3 sequence (P23576 29-451): as the sequence (P23576 29-451 S232C) above, with C204S counted along it
T3 sequence (P63138 25-474 partner limits assumed): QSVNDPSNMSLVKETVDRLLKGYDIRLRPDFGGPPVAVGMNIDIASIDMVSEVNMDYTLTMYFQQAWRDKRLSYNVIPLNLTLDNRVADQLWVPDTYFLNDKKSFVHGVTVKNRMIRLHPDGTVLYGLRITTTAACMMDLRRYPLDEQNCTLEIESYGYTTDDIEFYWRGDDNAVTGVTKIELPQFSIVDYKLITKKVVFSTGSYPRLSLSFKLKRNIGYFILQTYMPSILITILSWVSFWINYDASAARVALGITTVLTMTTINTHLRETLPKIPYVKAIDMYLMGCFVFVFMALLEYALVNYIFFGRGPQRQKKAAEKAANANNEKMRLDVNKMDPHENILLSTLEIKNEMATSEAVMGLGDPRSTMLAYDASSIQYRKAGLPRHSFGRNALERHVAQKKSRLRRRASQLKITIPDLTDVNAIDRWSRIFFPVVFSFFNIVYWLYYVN
T3 sequence (P18508 39-466): as the sequence (P18508 39-466) above
Protocol: For α5 containing receptors β2 was replaced by β1. […] Culturing of cells and membrane preparation were done as described before.
The properties of the recombinant mutant receptors were only estimated. For this affinity estimate, membranes were re-suspended in phosphate buffer using a Teflon homogenizer. […] The final protein concentration was 0.1–1 mg of protein/ml. […] Membranes were collected by rapid vacuum filtration on GF/C filters. After three washing steps (3 sec each) with 5 ml of phosphate buffer, the filter-retained radioactivity was determined by liquid scintillation counting.

mutated GABAA receptors = experiment: Time course of covalent reaction at the binding level (preliminary experiments); details: 10 µM and 1 µM 3-NCS, not shown
Protocol: as §2
as §3, with “The reaction of 3-NCS with the receptor was stopped by washing of the filters six times with 5 mL phosphate buffer, each. The small filters with the deposited membranes were incubated in 0.12 mL phosphate buffer containing 5 nM [^3H]Ro15–1788. After 30 min the 7 mm filter was placed on a 24 mm filter and washed six times with 5 mL phosphate buffer each.” left out

[11] = biological target: T1, α1S205Cβ2γ2 GABAA receptor; parameters: method as in PMID 19804380; details: 10 µM 3-NCS; cited from earlier work
[12] = biological target: T2, α1T206Cβ2γ2 GABAA receptor; parameters: method as in PMID 19804380; details: 10 µM 3-NCS; cited from earlier work
[13] = biological target: wild-type α1β2γ2 receptors; parameters: method as in PMID 19804380; details: cited from earlier work
[14] = 3-NCS 30 min on ice, washed, residual [^3H]Ro15–1788 binding
[15] = 0.5 h, 10 µM 3-NCS, mutation homologous to α1S205, n = 3, read-out: Extent of covalent reaction (100% minus % residual binding)
[16] = 0.5 h, 10 µM 3-NCS, mutation homologous to α1T206, n = 3, read-out: Extent of covalent reaction (100% minus % residual binding)

SMILES: CN1C(=O)C(N=C=S)N=C(c2ccccc2)c2cc([N+](=O)[O-])ccc21 (stereo not drawn) [3-NCS]
- EC50 [1]: 630 ± 180 nM
- EC50 [2]: 82 ± 28 nM
- EC50 [3, 14]: 3200 ± 2300 nM
- inhibition at 10 µM ([3]; 0.5 h, 10 µM 3-NCS, mutation homologous to α1S204, n = 3, read-out: Extent of covalent reaction (100% minus % residual binding)): 52%
- EC50 [4, 14]: 6600 ± 5400 nM
- inhibition at 10 µM [4, 15]: 39%
- EC50 [5, 14]: 190 ± 56 nM
- inhibition at 10 µM [5, 16]: 54%
- EC50 [6, 14]: 4100 ± 2200 nM
- inhibition at 10 µM [6, 15]: 54%
- EC50 [7, 14]: 450 ± 150 nM
- inhibition at 10 µM [7, 16]: 73%
- EC50 of the covalent reaction [8]: n.r.
- EC50 of the covalent reaction [9]: n.r. ^a
- EC50 of the covalent reaction [10]: n.r. ^a
- Ki (α2β2γ2 receptors): 1550 ± 250 nM
- Time to maximum of covalent reaction (mutated GABAA receptors): ≤ 15 s
- Covalent reaction with 3-NCS (in words) [11]: resulted in covalent reaction
- Covalent reaction with 3-NCS (in words) [12]: resulted in covalent reaction
- Ki ([13]; radioligand [^3H]Ro15–1788, read-out: Ki, displacement of [^3H]Ro15–1788): 340 ± 16 nM
- Ki ([13]; radioligand [^3H]flunitrazepam, read-out: Ki, displacement of [^3H]flunitrazepam): 240 ± 55 nM
